Reference: US12077778B2, “Methods of generating human inner ear sensory epithelia and sensory neurons” (INDIANA UNIVERSITY RESEARCH AND TECHNOLOGY CORPORATION, priority 2015, dated 2024)
“Also recorded” adds a separate entry of the source.

Key:
Format in all cases: cell-based, human
OEPD-induced aggregates = test: qPCR of PAX8/PAX2 expression after WNT and FGF signaling modulation, days 8-10; settings: one exploratory experiment
Description: Thus, we changed strategies by lengthening the initial culture phase to 12 days (with addition of fresh media on day 8) and testing the effect of transitioning the aggregates to Matrigel™ droplets.
Quantitative PCR. Analysis was performed as previously described on an ABI PRISM 7900HT Sequence Detection System (Applied Biosystems) or a Bio-Rad CFX96 quantitative PCR machine (Bio-Rad)^6. Data were normalized to L27 expression (internal control) and the fold change was calculated relative to Ct values from d0 WA25 aggregates using the ΔΔCt method. Unless stated otherwise, data represent at least 3 separate biological samples from separate experiments. All indicators of statistical significance refer to comparisons between a given condition and the control group. Refer to Table 4 for primer details.

WA25 cell aggregates = test: Non-neural ectoderm induction in WA25 hESC aggregates (qPCR, immunostaining)
Description: Following a 2-day incubation in E8 Medium, we transferred aggregates to CDM containing a low concentration of Matrigel and FGF-2 to stimulate epithelization and ectoderm differentiation on the aggregate surface. […] Remarkably, 100% of SB treated aggregates generated TFAP2^+ E-cadherin (ECAD)^+ epithelium with a surface ectoderm-like morphology by days 4-6 of differentiation—a time scale consistent with human embryogenesis (n=15 aggregates, 3 experiments; FIGS. 1B-1E; FIGS. 3A-3G). Over a period of 20 days, the epithelium expanded into a cyst composed of TFAP2^+ Keratin-5 (KRT5)^+ keratinocyte-like cells (FIGS. 6A-6E). From these findings, we concluded that treating WA25 cell aggregates with SB is sufficient to induce a non-neural epithelium.
(§1) Curious whether endogenous BMP activity is sufficient for non-neural specification, we performed a co-treatment with the BMP inhibitor, LDN-193189 (hereafter, LSB; dual LDN/SB treatment referred to as LSB). […] We reasoned that variation in endogenous BMP levels may underlie the different outcomes and the BMP concentration may need to be fine-tuned for each cell line. […] With either the SB or SBB approaches, the resulting epithelia closely resembled […] generated with mPSCs^5,6. In contrast to our mouse culture, non-neural conversion occurs without off-target induction of Brachyury (BRA)^+ mesendoderm cells (FIGS. 9A-9C). The following data were generated using either the SB (WA25) or SBB (mND2-0) approaches.
hPSC differentiation. To start differentiation, hPSC cells were dissociated with StemPro Accutase (Invitrogen) and distributed, 5,000 cells per well, onto 96-well V-bottom plates in E8 medium containing 20 μM Y-27632 (Stemgent) and Normocin. […] CDM contained a 50:50 mixture of F-12 Nutrient Mixture with GlutaMAX (Gibco) and Iscove's Modified Dulbecco's Medium with GlutaMAX (IMDM; Gibco) additionally supplemented with 0.5% Bovine Serum Albumin (BSA), 1× Chemically Defined Lipid Concentrate (Invitrogen), […] (Sigma), 15 μg ml^−1 Transferrin (Sigma), 450 μM Mono-Thioglycerol, and Normocin (see Table 1 for a detailed formulation). […] For some experiments, CDM containing a 18 μM CHIR99021 (3 μM final concentration; Stemgent) was added to the pre-existing 125 μl of media in each well—we determined that this treatment is optional for inner ear organoid production, but may improve induction of otic placode-like cells. […]
Quantitative PCR. Analysis was performed as previously described on an ABI PRISM 7900HT Sequence Detection System (Applied Biosystems) or a Bio-Rad CFX96 quantitative PCR machine (Bio-Rad)^6. Data were normalized to L27 expression (internal control) and the fold change was calculated relative to Ct values from d0 WA25 aggregates using the ΔΔCt method. […]

mND2-0 iPSCs = test: Non-neural ectoderm induction in mND2-0 iPSC aggregates
From the text: as §1
hPSC differentiation. To start differentiation, hPSC cells were dissociated with StemPro Accutase (Invitrogen) and distributed, 5,000 cells per well, onto 96-well V-bottom plates in E8 medium containing 20 μM Y-27632 (Stemgent) and Normocin. […] For some experiments, CDM containing a 18 μM CHIR99021 (3 μM final concentration; Stemgent) was added to the pre-existing 125 μl of media in each well—we determined that this treatment is optional for inner ear organoid production, but may improve induction of otic placode-like cells. […]

[1] = day 2, 10 μM SB, or 10 μM SB + 10 ng/ml BMP4 (SBB)

Oc1nc(-c2ccc(C(F)(F)F)cc2)nc2c1CSCC2 [XAV939] was tested, and the “PAX2 expression (qPCR) compared to DMSO controls” value (OEPD-induced aggregates) was “only had a modest positive or negative impact on PAX2 expression”.

For NC(=O)c1ccc(-c2nc(-c3ccc4c(c3)OCO4)c(-c3ccccn3)[nH]2)cc1 [SB, SB-431542], the “aggregates that generated TFAP2+ E-cadherin (ECAD)+ epithelium with surface ectoderm-like morphology” value (WA25 cell aggregates; 10 μM SB, days 4-6 of differentiation, n=15 aggregates, 3 experiments) was 100%, the “extraembryonic marker CDX2 expression (qPCR)” value (WA25 cell aggregates; [1]) was “no corresponding CDX2 expression” and the “non-neural marker genes TFAP2 and DLX3 expression (qPCR)” value (WA25 cell aggregates; [1]) was “upregulated; also recorded: increase in TFAP2 and DLX3 expression”. For the same molecule, the “cell types generated (marker immunostaining)” value (mND2-0 iPSCs; mND2-0 iPSCs, day 6, 10 μM SB alone or with 2.5 ng/ml BMP4) was “generated PAX6^+ neuroectoderm and TFAP2^+ ECAD^− neural crest-like cells”.

In the case of CCN(CC)CCCCNc1ncc2cc(-c3cc(OC)cc(OC)c3)c(NC(=O)NC(C)(C)C)nc2n1 [PD-173074], the “PAX2 expression (qPCR) compared to DMSO controls” value (OEPD-induced aggregates) is reported as “likely inhibits PAX2 expression”.

B1: BMP4: recombinant human BMP4, agonist of BMP signaling (protein, UniProt P12644 293-408, looked up)
Bone morphogenetic protein 4: SPKHHSQRARKKNKNCRRHSLYVDFSDVGWNDWIVAPPGYQAFYCHGDCPFPLADHLNSTNHAIVQTLVNSVNSSIPKACCVPTELSAISMLYLDEYDKVVLKNYQEMVVEGCGCR
B1 was tested, and the “mesendoderm markers BRA and EOMES expression (qPCR)” value (WA25 cell aggregates; day 2, BMP4 (B) treatment) was “upregulated” and the “minimum BMP concentration that produced the morphological changes (translucent sphere)” value (mND2-0 iPSCs; mND2-0 iPSCs with SB, 1.25-40 ng/ml tested, preliminary experiment) was 2.5 ng/ml.
